From patent US20110207723A1, “NOVEL FUSED AMINODIHYDROTHIAZINE DERIVATIVE” (EISAI R&D MANAGEMENT CO., LTD., priority 2008, published 2011)

Tested on: Aβ42 production
Experiment: Quantification of Aβ peptide in culture of neurons from rat fetus brain (Aβ42 ELISA)
Format: cell-based
Conditions: Neuron, 72 h, rat primary neuronal culture (embryonic day 18 Wistar rat cerebral cortex), medium collected three days after addition of compound, read-out: Aβ42 production reducing effect IC50
Method in brief: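 Primary cortical neurons from E18 Wistar rat embryos, cultured 4 days in Neurobasal/B27/2-ME, then treated 3 days with compound in Neurobasal/B27 (final DMSO 1% or less; DMSO control). Conditioned medium collected; Aβx-42 measured undiluted by sandwich ELISA kit.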

Compound | IC50 [nM]
NC1=N[C@@]2(c3cc(NC(=O)c4cnc(OCF)cn4)ccc3F)CO[C@@H](CF)C[C@H]2CS1 [Example 47, N-[3-((4aR,6R,8aS)-2-amino-6-fluoromethyl-4,4a,5,6-tetrahydro-7-oxa-3-thia-1-azanaphthalen-8a-yl)-4-fluorophenyl]-5-fluoromethoxypyrazine-2-carboxamide] | 4
N#Cc1ccc(C(=O)Nc2ccc(F)c([C@]34COCC[C@H]3CSC(N)=N4)c2)nc1 (relative stereo) [Example 1, N-[3-((4aR*,8aS*)-2-amino-4,4a,5,6-tetrahydro-7-oxa-3-thia-1-azanaphthalen-8a-yl)-4-fluorophenyl]-5-cyanopyridine-2-carboxamide] | 1.7
NC1=N[C@@]2(c3cc(NC(=O)c4ccc(Cl)cn4)ccc3F)COC[C@@H](F)[C@H]2CS1 [Example 18, N-[3-((4aS,5S,8aS)-2-amino-5-fluoro-4,4a,5,6-tetrahydro-7-oxa-3-thia-1-azanaphthalen-8a-yl)-4-fluorophenyl]-5-chloropyridine-2-carboxamide] | 7
C[C@H]1C[C@H]2CSC(N)=N[C@@]2(c2cc(NC(=O)c3ccc(C(F)(F)F)cn3)ccc2F)CO1 (relative stereo) [Example 8, N-[3-((4aR*,6S*,8aS*)-2-amino-6-methyl-4,4a,5,6-tetrahydro-7-oxa-3-thia-1-azanaphthalen-8a-yl)-4-fluorophenyl]-5-trifluoromethylpyridine-2-carboxamide] | 1.6
NC1=N[C@@]2(c3cc(NC(=O)c4cnc(C(F)F)cn4)ccc3F)COCC[C@H]2CS1 (single isomer, unassigned) [Example 57, N-[3-((4aR*,8aS*)-2-amino-4,4a,5,6-tetrahydro-7-oxa-3-thia-1-azanaphthalen-8a-yl)-4-fluorophenyl]-5-difluoromethylpyrazine-2-carboxamide] | 2
NC1=N[C@@]2(c3cc(NC(=O)c4ccc(C(F)F)cn4)ccc3F)COCC[C@H]2CS1 (single isomer, unassigned) [Example 56, N-[3-((4aR*,8aS*)-2-amino-4,4a,5,6-tetrahydro-7-oxa-3-thia-1-azanaphthalen-8a-yl)-4-fluorophenyl]-5-difluoromethylpyridine-2-carboxamide] | 3
NC1=N[C@@]2(c3cc(NC(=O)c4ncc(Br)cc4Br)ccc3F)COCC[C@H]2CS1 (single isomer, unassigned) [Example 54, N-[3-((4aR*,8aS*)-2-amino-4,4a,5,6-tetrahydro-7-oxa-3-thia-1-azanaphthalen-8a-yl)-4-fluorophenyl]-3,5-dibromopyridine-2-carboxamide] | 2
